Test results reported in ChEMBL document CHEMBL4610064, “DNA-Encoded Library Screening as Core Platform Technology in Drug Discovery: Its Synthetic Method Development and Applications in DEL Synthesis” (J Med Chem, 2020).
Values after ≈ are worked out from the molar mass of the structure shown.

What was measured:
[1] = Aqueous solubility of the compound; type: physicochemical; settings: water
[2] = biological target: T1, Neuromedin-K receptor (Homo sapiens) (UniProt P29371); experiment: Antagonist activity at NK3 (unknown origin)
T1 sequence (whole entry): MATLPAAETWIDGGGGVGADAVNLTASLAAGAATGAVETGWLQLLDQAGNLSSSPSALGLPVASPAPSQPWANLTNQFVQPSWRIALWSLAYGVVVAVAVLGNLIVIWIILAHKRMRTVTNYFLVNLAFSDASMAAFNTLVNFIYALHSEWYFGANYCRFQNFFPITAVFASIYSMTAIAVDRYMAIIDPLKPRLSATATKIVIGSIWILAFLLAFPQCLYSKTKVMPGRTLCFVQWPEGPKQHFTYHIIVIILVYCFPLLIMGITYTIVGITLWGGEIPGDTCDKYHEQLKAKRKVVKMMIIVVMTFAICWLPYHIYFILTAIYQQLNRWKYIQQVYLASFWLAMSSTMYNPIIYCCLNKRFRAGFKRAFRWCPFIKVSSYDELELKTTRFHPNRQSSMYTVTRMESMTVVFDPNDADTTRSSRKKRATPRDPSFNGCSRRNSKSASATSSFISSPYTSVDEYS

[3] = biological target: T2, Substance-K receptor (Homo sapiens) (UniProt P21452); experiment: Antagonist activity at NK2 (unknown origin)
T2 sequence (whole entry): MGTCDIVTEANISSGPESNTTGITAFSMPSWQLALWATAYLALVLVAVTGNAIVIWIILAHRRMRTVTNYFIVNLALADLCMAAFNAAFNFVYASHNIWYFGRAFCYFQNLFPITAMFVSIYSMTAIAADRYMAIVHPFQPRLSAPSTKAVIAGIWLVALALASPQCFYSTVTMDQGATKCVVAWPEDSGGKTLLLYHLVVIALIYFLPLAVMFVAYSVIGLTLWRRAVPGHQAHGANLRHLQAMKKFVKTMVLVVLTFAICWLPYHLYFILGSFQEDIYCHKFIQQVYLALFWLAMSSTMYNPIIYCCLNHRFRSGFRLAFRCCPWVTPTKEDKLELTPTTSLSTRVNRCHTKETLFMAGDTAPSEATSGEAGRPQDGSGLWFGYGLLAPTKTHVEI

[4] = biological target: Substance-P receptor (Homo sapiens) (UniProt P25103); experiment: Antagonist activity at NK1 (unknown origin)
Substance-P receptor (Homo sapiens), sequence (P25103 whole entry): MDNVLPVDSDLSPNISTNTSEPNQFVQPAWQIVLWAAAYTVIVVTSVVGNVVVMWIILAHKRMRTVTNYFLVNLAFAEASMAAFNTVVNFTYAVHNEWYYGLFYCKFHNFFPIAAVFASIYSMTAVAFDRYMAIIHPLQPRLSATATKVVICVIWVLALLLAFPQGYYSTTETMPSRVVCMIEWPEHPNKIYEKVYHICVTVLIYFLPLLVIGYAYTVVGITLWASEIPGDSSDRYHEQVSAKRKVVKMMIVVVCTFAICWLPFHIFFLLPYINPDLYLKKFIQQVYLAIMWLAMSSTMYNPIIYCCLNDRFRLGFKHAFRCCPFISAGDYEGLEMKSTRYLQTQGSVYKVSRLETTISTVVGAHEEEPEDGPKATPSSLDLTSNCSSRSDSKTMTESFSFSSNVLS

fKi [2] | fKi [3] | fKi [4] | SMILES | solubility [1]
– | – | – | CNC(=O)CN1CN(c2ccccc2)C2(CCN(C(=O)c3ccc4[nH]ncc4c3)CC2)C1=O | 1.4 µg/mL (≈ 3.14 µM)
– | – | – | O=C(CN1C(=O)C2(CCN(C(=O)c3ccc4[nH]ncc4n3)CC2)c2c(Br)cccc21)NCC(F)(F)F | 103 µg/mL (≈ 182 µM)
1.2 nM | > 1000 nM | > 1000 nM | Cn1c(-c2c[nH]c3cc(C#N)ccc23)nc2cc(C(=O)N3CCOC(c4ccccc4)C3CO)ccc21 (stereo not drawn) | –
1.2 nM | > 1000 nM | > 1000 nM | CCn1c(-c2ccccc2-c2ccc(C)cc2C)nc2cc(C(=O)NC)ccc21 | –
